Experimental data: the Deep4Chem optical property database

Test: solvent given as SMILES

`c1ccc(N(c2ccccc2)c2ccc(N(c3ccccc3)c3ccc4ccc5c(N(c6ccccc6)c6ccc(N(c7ccccc7)c7ccccc7)cc6)ccc6ccc3c4c65)cc2)cc1` showed an absorption maximum (in ClCCl) of 438 nm.

With `COc1ccc(-c2c3nc(c(-c4ccc(OC)cc4)c4ccc([nH]4)c(-c4ccc(OC)cc4)c4nc(c(-c5ccc(OC)cc5)c5ccc2[nH]5)C=C4N2CCOCC2)C=C3)cc1` the absorption maximum (in CS(C)=O) was 660 nm.

Work on `COc1ccc(-c2nc(-c3ccccc3O)c(-c3ccccc3O)n2-c2ccc(C)cc2)cc1` yielded an absorption maximum (in C1CCOC1) of 305 nm, an absorption maximum (in CS(C)=O) of 308 nm and an absorption maximum (in ClC(Cl)Cl) of 304 nm. It also gave an absorption maximum (in ClCCl) of 304 nm.

`COc1ccc(-c2nc3c([nH]2)C2=CC(=O)S[C@]2(C)[C@@]2(C)SC(=O)C=C32)cc1` gave an absorption maximum (in CC#N) of 392 nm.

`CC1(C)c2ccccc2N(c2ccc(-c3n[n+]4c(o3)-c3ccccc3O[B-]4(F)F)cc2)c2ccccc21` gave an absorption maximum (in C1COCCO1) of 361 nm, an absorption maximum (in CC(C)=O) of 360 nm and an absorption maximum (in CCN(CC)CC) of 362 nm. For the same compound, the absorption maximum (in CCO) was 361 nm, the absorption maximum (in CCOC(C)=O) was 361 nm and the absorption maximum (in CS(C)=O) was 362 nm. It also gave an absorption maximum (in Cc1ccccc1) of 364 nm, an absorption maximum (in ClC(Cl)Cl) of 367 nm and an absorption maximum (in ClCCCl) of 362 nm. It also gave an absorption maximum (in ClCCl) of 383 nm and an absorption maximum (in Clc1ccccc1) of 369 nm.

With `Cc1cc(/N=C/c2cc(S(=O)(=O)[O][Na])ccc2O)c(/N=C/c2cc(S(=O)(=O)[O][Na])ccc2O)cc1C` the absorption maximum (in O) was 371 nm.

For `COC(=O)c1ccc(/C=C2\N=C(c3ccc([N+](=O)[O-])cc3)NC2=O)cc1`, the absorption maximum (in C1COCCO1) was 405 nm.

`CCOC(=O)C1=CN(c2ccccc2)C=C(C(=O)OCC)C1c1ccccc1` gave an absorption maximum (in C1CCOC1) of 362 nm and an absorption maximum (in CO) of 366 nm.

In the case of `COC(=O)c1ccc(C2=C(/C=C/c3ccc(OC)cc3)O[B-](F)(F)[O+]=C2/C=C/c2ccc(OC)cc2)cc1`, the absorption maximum (in ClCCl) was 507 nm.

Compound `CN(C)c1ccc(C#Cc2ccc3ccc(=O)oc3c2)cc1` has an absorption maximum (in CC#N) of 333 nm.

Work on `Clc1ccc(-c2nc3ccccc3n2-c2ccccc2)cc1` yielded an absorption maximum (in CC#N) of 295 nm.

`c1ccc(-c2cc3cccc[n+]3[b-]3ccc(-c4cc[b-]5c(c4)c(-c4ccccc4)cc4cccc[n+]54)cc32)cc1` gave an absorption maximum (in C1CCCCC1) of 517 nm.

For `CC(C)(C)c1ccc2oc3nc4oc5ccc(N6c7ccccc7Sc7ccccc76)cc5c4cc3c2c1`, the absorption maximum (in ClC(Cl)Cl) was 348 nm.

`COC(=O)c1noc(-c2ccccc2)c1Br` gave an absorption maximum (in C1CCCCC1) of 307 nm.

`c1ccc(-n2nc(-c3ccc(N4c5ccccc5Sc5ccccc54)cc3)nc2-c2ccccn2)cc1` showed an absorption maximum (in ClCCl) of 329 nm.

`O=c1c2ccccc2n(-c2ccc(-c3ccc(N(c4ccccc4)c4ccccc4)cc3)cc2)c2ccccc12` showed an absorption maximum (in ClCCl) of 394 nm.

With `C=CC1CN2CCC1CC2[C@@H](OCc1ccccc1)c1ccnc2ccc(O)cc12` (stereo not given in full) the absorption maximum (in C1CCOC1) was 338 nm, the absorption maximum (in CC#N) was 335 nm and the absorption maximum (in CCCC#N) was 337 nm. For the same compound, the absorption maximum (in Cc1ccccc1) was 335 nm and the absorption maximum (in ClCCl) was 334 nm.

In the case of `COC(C)CC1=N/C(=C\c2cccc(N(C)C)c2)C(=O)N1C` (stereo not given), the absorption maximum (in C1CCOC1) was 355 nm, the absorption maximum (in CC#N) was 355 nm and the absorption maximum (in CCCCCC) was 354 nm.

`O=C1/C(=C/C=C/c2cc3c4c(c2)CCCN4CCC3)CC/C1=C\C=C\c1cc2c3c(c1)CCCN3CCC2` gave an absorption maximum (in CC#N) of 510 nm, an absorption maximum (in CC(C)=O) of 515 nm and an absorption maximum (in CC(C)O) of 535 nm. For the same compound, the absorption maximum (in CCCCCC) was 457 nm, the absorption maximum (in CCCCO) was 543 nm and the absorption maximum (in CCCO) was 541 nm. The absorption maximum (in CCO) was 538 nm, the absorption maximum (in CCOC(C)=O) was 495 nm and the absorption maximum (in CCOCC) was 494 nm. The absorption maximum (in CN(C)C=O) was 532 nm, the absorption maximum (in CO) was 523 nm and the absorption maximum (in CS(C)=O) was 539 nm. The absorption maximum (in Cc1ccccc1) was 505 nm, the absorption maximum (in ClCCl) was 529 nm and the absorption maximum (in OCC(F)(F)F) was 584 nm. For the same compound, the absorption maximum (in S=C=S) was 530 nm, the absorption maximum (in c1ccccc1) was 510 nm and the absorption maximum (in c1ccncc1) was 534 nm.

`CN(C)c1ccc(/C=C/c2cc(/C=C/c3ccc(N(C)C)cc3)nc(/C=C/c3ccc(C(F)(F)F)cc3)n2)cc1` showed an absorption maximum (in ClCCl) of 429 nm.

For `CN1C(C(=O)Nc2ccccn2)=C([O-])c2sccc2S1(=O)=O`, the absorption maximum (in CC#N) was 382 nm, the absorption maximum (in CCCCO) was 377 nm and the absorption maximum (in CCCO) was 376 nm. For the same compound, the absorption maximum (in CCO) was 375 nm and the absorption maximum (in CO) was 373 nm.

Compound `COC(=O)c1ccc(-c2ccc3c(c2)C(=O)c2cc(-c4ccc(C(=O)OC)cc4)ccc2-3)cc1` has an absorption maximum (in C1CCOC1) of 342 nm.

For `C(=C\c1nc2ccccc2s1)/c1ccccc1`, the absorption maximum (in C1CCCCC1) was 340 nm and the absorption maximum (in CO) was 340 nm.

Compound `C[n+]1ccc(/C=C/c2cc[n+](C)cc2)cc1` has an absorption maximum (in CC#N) of 317 nm.

Compound `COC(=O)/C=C/c1sc(-c2ccc(N(C)C)s2)c(-c2cn(C)c3ccccc23)c1O` has an absorption maximum (in CC#N) of 478 nm.

In the case of `F[B-]1(F)n2c(ccc2-c2ccccc2)C(c2ccc(I)cc2)=C2C=CC(c3ccccc3)=[N+]21`, the absorption maximum (in ClC(Cl)Cl) was 555 nm.

In the case of `CC1=CC(C)=[N+]2C1=C(c1ccc(I)cc1)c1c(C)cc(C)n1[B-]2(OCc1ccccc1)OCc1ccccc1`, the absorption maximum (in ClC(Cl)Cl) was 506 nm.

In the case of `c1ccc(-c2nn(-c3ccccc3)c3nc4ccc(-n5c6ccccc6c6ccccc65)cc4cc23)cc1`, the absorption maximum (in C1CCCCC1) was 419.11 nm, the absorption maximum (in C1CCOC1) was 414.94 nm and the absorption maximum (in CC#N) was 411.02 nm. For the same compound, the absorption maximum (in CC(C)=O) was 412.03 nm, the absorption maximum (in CCCCCl) was 415.97 nm and the absorption maximum (in CCCCOCCCC) was 418.06 nm. For the same compound, the absorption maximum (in CN(C)C=O) was 414.94 nm.

`CCC1=C(C)C2=C(/C=C/c3ccc(OC)cc3)c3c(C)c(CC)c(C)n3[B-](F)(F)[N+]2=C1C` showed an absorption maximum (in ClCCl) of 529 nm.

With `C(#Cc1ccccc1C#Cc1ccccc1)c1ccccc1` the absorption maximum (in CC#N) was 310 nm.

For `CC(=C(C#Cc1ccccc1)C#Cc1ccccc1)c1ccc(C(C)=C(C#Cc2ccccc2)C#Cc2ccccc2)cc1`, the absorption maximum (in ClC(Cl)Cl) was 360 nm.

In the case of `N#C/C(=C\c1ccc(Cl)cc1)c1nc2ccccc2s1`, the absorption maximum (in C1CCCCC1) was 350 nm and the absorption maximum (in CO) was 350 nm.

`OC1(c2ccc(-c3cccs3)s2)CCC1` gave an absorption maximum (in C1CCOC1) of 311 nm, an absorption maximum (in CC#N) of 309 nm and an absorption maximum (in CCCCCC) of 308 nm. For the same compound, the absorption maximum (in CCO) was 310 nm, the absorption maximum (in OCCOCCO) was 314 nm and the absorption maximum (in c1ccncc1) was 316 nm.

In the case of `F[B-]1(F)OC(c2ccc(C(F)(F)F)cc2)=Cc2c3ccccc3c3ccccc3[n+]21`, the absorption maximum (in ClC(Cl)Cl) was 430 nm.

Compound `COC(=O)C(N)Cc1ccc(O[Si]2(Oc3ccc(CC(N)C(=O)OC)cc3)n3c4c5ccccc5c3/N=C3N=C(/N=c5/c6ccccc6/c(n52)=N/C2=NC(=N\4)/c4ccccc42)c2ccccc2\3)cc1` (stereo not given) has an absorption maximum (in CN(C)C=O) of 680 nm.

Work on `CC(C)[Si](C#CC1=CC2=c3cc(C#C[Si](C(C)C)(C(C)C)C(C)C)c4nc(C(F)(F)C(F)(F)C(F)(F)F)nc5c(C#C[Si](C(C)C)(C(C)C)C(C)C)cc(c3c54)C3=CC(C#C[Si](C(C)C)(C(C)C)C(C)C)=C4N=C(C(F)(F)C(F)(F)C(F)(F)F)N=C1C4C32)(C(C)C)C(C)C` (stereo not given) yielded an absorption maximum (in C1CCOC1) of 516 nm.

In the case of `CC1(C)c2ccccc2N(c2ccc(-c3ncccn3)cc2)c2ccccc21`, the absorption maximum (in Cc1ccccc1) was 359 nm.

With `C[Si]1(C)O[Si](C)(C)c2cc3c(-c4ccccc4F)c4cc(Cl)ccc4nc3cc21` the absorption maximum (in ClCCl) was 380 nm.

`CC1(C)OB(c2ccc3ccc4cccc5ccc2c3c45)OC1(C)C` gave an absorption maximum (in Cc1ccccc1) of 378 nm.

Work on `O=C1NC(=O)c2ccc(N3CCOCC3)c3cccc1c23` yielded an absorption maximum (in ClC(Cl)Cl) of 394 nm.

Compound `CC1=CC(C)=[N+]2C1=C(c1ccccc1)c1c(C)cc(/C=C/c3ccc(O)cc3)n1[B-]2(F)F` has an absorption maximum (in O) of 565 nm.
